# From publication PMC8343220, “The selectivity of α‐adrenoceptor agonists for the human α1A, α1B, and α1D‐adrenoceptors” (Pharmacology Research & Perspectives, 2021)
# Experiments:
# [1] = system: parental CHO cell line without any transfected receptors; experiment: ERK1/2‐phosphorylation, parent CHO cells without transfected receptors; format: cell-based, Chinese hamster; conditions: CHO cells without transfected receptors, mean ± s.e.m.; for ERK1/2-phosphorylation % PDBu: maximal response as % of PDBu (10μM) response
# [2] = molecular target: T1, human α1D‐adrenoceptor (full length) (Homo sapiens, UniProt P25100); experiment: Intracellular free calcium mobilization, CHO‐α1D cells; format: cell-based; conditions: CHO‐α1D cells; for Log efficacy ratio KD /EC50: intrinsic efficacy ratio, binding KD / calcium EC50; for EC50: log values given negative, read-out: Intracellular calcium release Log EC50 (converted); for Intracellular calcium release % ionomycin: maximal response as % of 10 µM ionomycin
# T1 construct: human α1D‐adrenoceptor (full length) were used; expressed in transfected cells; host or cells: CHO-K1
# T1 sequence (P25100 1-572): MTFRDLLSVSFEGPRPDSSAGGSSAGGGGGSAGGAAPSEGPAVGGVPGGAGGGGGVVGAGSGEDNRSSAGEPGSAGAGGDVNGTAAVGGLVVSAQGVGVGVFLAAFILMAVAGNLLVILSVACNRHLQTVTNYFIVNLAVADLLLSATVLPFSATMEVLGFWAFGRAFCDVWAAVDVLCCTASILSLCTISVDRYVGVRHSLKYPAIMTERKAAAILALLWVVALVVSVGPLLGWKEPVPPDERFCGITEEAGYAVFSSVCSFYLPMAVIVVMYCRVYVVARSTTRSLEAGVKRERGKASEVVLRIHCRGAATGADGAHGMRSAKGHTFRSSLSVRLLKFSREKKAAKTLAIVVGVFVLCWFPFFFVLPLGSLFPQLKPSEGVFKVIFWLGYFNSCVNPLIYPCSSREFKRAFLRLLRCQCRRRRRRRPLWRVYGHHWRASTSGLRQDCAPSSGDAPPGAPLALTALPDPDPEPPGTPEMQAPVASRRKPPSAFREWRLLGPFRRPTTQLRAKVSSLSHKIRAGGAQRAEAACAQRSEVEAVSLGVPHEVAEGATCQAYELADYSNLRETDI
# human α1B‐adrenoceptor [3] = molecular target: T2, human α1B‐adrenoceptor (Homo sapiens, UniProt P35368); experiment: ^3H‐prazosin whole‐cell radioligand binding, CHO‐α1B cells; conditions: CHO‐α1B cells; printed as IC50> log value
# T2 construct: expressed in transfected cells; host or cells: CHO-K1
# T2 sequence (P35368 1-520): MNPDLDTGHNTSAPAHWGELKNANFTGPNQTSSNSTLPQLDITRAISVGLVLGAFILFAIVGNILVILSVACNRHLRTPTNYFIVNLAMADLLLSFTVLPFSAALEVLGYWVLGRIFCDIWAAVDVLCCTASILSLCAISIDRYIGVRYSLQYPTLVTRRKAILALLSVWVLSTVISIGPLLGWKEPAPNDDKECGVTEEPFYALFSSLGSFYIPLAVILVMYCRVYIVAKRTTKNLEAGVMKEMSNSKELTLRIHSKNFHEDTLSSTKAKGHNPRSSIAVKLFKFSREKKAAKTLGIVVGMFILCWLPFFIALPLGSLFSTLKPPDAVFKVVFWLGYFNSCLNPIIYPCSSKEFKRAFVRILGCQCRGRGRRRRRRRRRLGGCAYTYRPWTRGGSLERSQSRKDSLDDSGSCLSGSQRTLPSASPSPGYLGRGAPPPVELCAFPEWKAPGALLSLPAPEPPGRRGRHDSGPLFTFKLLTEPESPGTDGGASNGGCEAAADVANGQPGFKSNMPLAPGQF
# [4] = molecular target: T1, human α1D‐adrenoceptor (full length); experiment: ^3H‐prazosin whole‐cell radioligand binding, CHO‐α1D cells; conditions: for Kd: CHO‐α1D cells; for Affinity selectivity ratio α1B vs α1D: higher affinity for α1D than α1B
# human α1B‐adrenoceptor [5] = molecular target: T2, human α1B‐adrenoceptor; experiment: ^3H‐cAMP accumulation in the presence of 10 μM forskolin, CHO‐α1B cells; format: cell-based; conditions: CHO‐α1B cells; for cAMP accumulation (in presence of forskolin) Fold increase: fold increase of the forskolin response; for EC50: in presence of forskolin, read-out: cAMP accumulation (in presence of forskolin) Log EC50 (converted)
# [6] = molecular target: T1, human α1D‐adrenoceptor (full length); experiment: ^3H‐cAMP accumulation, CHO‐α1D cells; format: cell-based; conditions: cAMP accumulation without forskolin
# [7] = molecular target: T1, human α1D‐adrenoceptor (full length); experiment: ^3H‐cAMP accumulation in the presence of 10 μM forskolin, CHO‐α1D cells; format: cell-based; conditions: CHO‐α1D cells; for cAMP (in presence of forskolin) Fold increase: fold increase of the forskolin response; for EC50: in presence of forskolin, log values given negative
# [8] = system: parental CHO cell line without any transfected receptors; experiment: Forskolin‐stimulated cAMP accumulation, parent CHO cells without transfected receptors; format: cell-based, Chinese hamster; conditions: CHO cells without transfected receptors; in presence of forskolin
# human α1A‐adrenoceptor = molecular target: T3, human α1A‐adrenoceptor (Homo sapiens, UniProt P35348); experiment: Intracellular free calcium mobilization, CHO‐α1A cells; format: cell-based; conditions: CHO‐α1A cells; for Log efficacy ratio KD /EC50: binding KD and calcium EC50; for EC50: given as log EC50 (negative), read-out: Intracellular calcium release Log EC50 (converted); for Intracellular calcium release % ionomycin: maximal response as % of 10 µM ionomycin
# T3 construct: expressed in transfected cells; host or cells: CHO-K1
# T3 sequence (P35348 1-466): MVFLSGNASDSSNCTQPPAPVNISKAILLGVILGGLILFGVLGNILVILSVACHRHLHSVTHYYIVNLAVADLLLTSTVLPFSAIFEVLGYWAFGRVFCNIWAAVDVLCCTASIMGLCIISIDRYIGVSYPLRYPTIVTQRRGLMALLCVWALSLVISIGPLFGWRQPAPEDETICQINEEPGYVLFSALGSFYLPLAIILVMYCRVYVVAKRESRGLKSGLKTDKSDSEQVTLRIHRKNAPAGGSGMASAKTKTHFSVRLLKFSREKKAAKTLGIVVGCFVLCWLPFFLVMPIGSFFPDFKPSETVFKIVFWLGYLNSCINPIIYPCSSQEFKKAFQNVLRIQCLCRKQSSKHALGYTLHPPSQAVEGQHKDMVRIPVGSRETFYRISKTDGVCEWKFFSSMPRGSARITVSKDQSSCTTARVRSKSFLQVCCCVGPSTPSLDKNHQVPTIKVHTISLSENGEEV
# human α1B‐adrenoceptor [9] = molecular target: T2, human α1B‐adrenoceptor; experiment: ERK1/2‐phosphorylation (Surefire Alphascreen), CHO‐α1B cells; format: cell-based; conditions: CHO‐α1B cells, for bi‐phasic responses the initial stimulatory part; for EC50: read-out: ERK1/2‐phosphorylation Log EC50 (converted); for ERK1/2‐phosphorylation % PDBu: maximal response as % PDBu response
# human α1B‐adrenoceptor [10] = molecular target: T2, human α1B‐adrenoceptor; experiment: Intracellular free calcium mobilization, CHO‐α1B cells; format: cell-based; conditions: CHO‐α1B cells; for EC50: given as log EC50 (negative numbers), read-out: Intracellular calcium release Log EC50 (converted); for Log efficacy ratio KD /EC50: intrinsic efficacy ratio, KD from binding / EC50 calcium; for Intracellular calcium release % ionomycin: maximal response as % of 10 µM ionomycin response
# [11] = molecular target: T1, human α1D‐adrenoceptor (full length); experiment: ERK1/2‐phosphorylation (Surefire Alphascreen), CHO‐α1D cells; format: cell-based; conditions: CHO‐α1D cells; for EC50: log values given negative, read-out: ERK1/2‐phosphorylation Log EC50 (converted); for ERK1/2‐phosphorylation % PDBu: maximal response as % of PDBu
# human α1B‐adrenoceptor [12] = molecular target: T2, human α1B‐adrenoceptor; experiment: ^3H‐cAMP accumulation, CHO‐α1B cells; format: cell-based; conditions: CHO‐α1B cells; response at 100 µM ligand (no EC50 given)
# [13] = 3H‐prazosin binding Log KD, whole‐cell binding (from Table 1), log values given negative
# [14] = Log KD α1D, ^3H‐prazosin whole cell binding, given as log KD (negative), mean ± SEM, 'early plateau' = specific binding not fully inhibited
Compound,ERK1/2-phosphorylation % PDBu [1],ERK1/2-phosphorylation Log EC50 [1],Log efficacy ratio KD /EC50 [2],EC50 [2] [µM],Intracellular calcium release % ionomycin [2] [%],IC50 (human α1B‐adrenoceptor [3]) [µM],"Kd [4, 13] [µM]","Kd [4, 14] [µM]",Affinity selectivity ratio α1B vs α1D [4] [fold],cAMP accumulation (in presence of forskolin) Fold increase (human α1B‐adrenoceptor [5]) [fold],EC50 (human α1B‐adrenoceptor [5]) [µM],cAMP Log EC50 [6],cAMP (in presence of forskolin) Fold increase [7],EC50 [7] [µM],cAMP accumulation (in presence of forskolin) Log EC50 [8],Log efficacy ratio KD /EC50 (human α1A‐adrenoceptor),EC50 (human α1A‐adrenoceptor) [µM],Intracellular calcium release % ionomycin (human α1A‐adrenoceptor) [%],EC50 (human α1B‐adrenoceptor [9]) [µM],ERK1/2‐phosphorylation % PDBu (human α1B‐adrenoceptor [9]) [%],other results
COc1ccc(OC)c(C(O)C(C)N)c1 (centres unmarked) [Methoxamine],No response,No response,1.56,4.17,22.6 ± 4.7,> 1000,151,151,>6.6,2.42 ± 0.05,6.92,No response,1.21 ± 0.04,10.5,No response,3.43,0.00871,55.9 ± 2.3,2.82,83.8 ± 5.7,EC50 (human α1B‐adrenoceptor [10]): 0.229 µM; Log efficacy ratio KD /EC50 (human α1B‐adrenoceptor [10]): >3.64; Intracellular calcium release % ionomycin (human α1B‐adrenoceptor [10]): 59.1 ± 3.2%; EC50 [11]: 8.32 µM; ERK1/2‐phosphorylation % PDBu [11]: 14.2 ± 3.9%; cAMP accumulation % forskolin at 100 µM (human α1B‐adrenoceptor [12]): 24.2 ± 4.6%
CCNCC(O)c1cccc(O)c1 (centres unmarked) [Etilefrine],No response,No response,1.42,1.35,13.7 ± 1.8,> 1000,35.5,35.5,>28.1,2.47 ± 0.09,0.661,No response,1.18 ± 0.04,0.759,No response,3.12,0.0776,58.1 ± 2.1,0.302,78.8 ± 6.1,Affinity selectivity ratio α1A vs α1D ([4]; higher affinity for α1D than α1A): 2.9 fold; EC50 (human α1B‐adrenoceptor [10]): 0.0138 µM; Log efficacy ratio KD /EC50 (human α1B‐adrenoceptor [10]): >4.86; Intracellular calcium release % ionomycin (human α1B‐adrenoceptor [10]): 61.1 ± 2.1%; EC50 [11]: 1.51 µM; ERK1/2‐phosphorylation % PDBu [11]: 16.8 ± 2.0%; cAMP accumulation % forskolin at 100 µM (human α1B‐adrenoceptor [12]): 73.4 ± 7.1%
